According to patent US20150044702A1, “MEANS AND METHODS FOR ASSESSING DISORDERS RELATED TO IMPAIRED IRON […] ENERGY METABOLISM” (BASF SE, priority 2012, published 2015):
Marks after values point to notes of the source that are not given here.

Assay: 28-day rat study, plasma metabolite profiling: markers for Duodenum iron deficiency;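 further: rats given the compounds once a day across 28 days, plasma from fasted animals profiled by GC-MS and LC-MS, separate control groups of five rats per sex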
Details: for Cholic acid, treatment ratio versus control / Choline plasmalogen (C18,C20:4), treatment ratio versus control / Citrate, treatment ratio versus control / Creatinine, treatment ratio versus control / DAG (C18:1,C18:2), treatment ratio versus control / Hippuric acid, treatment ratio versus control / Indole-3-propionic acid, treatment ratio versus control / Methionine, treatment ratio versus control / Proline, treatment ratio versus control / Serine, treatment ratio versus control / TAG (C16:0,C18:1,C18:3), treatment ratio versus control / TAG (C18:1,C18:2), treatment ratio versus control / TAG (C18:2,C18:2), treatment ratio versus control / TAG (C18:2,C18:3), treatment ratio versus control / TAG (DAG-Fragment), treatment ratio versus control / TAG No 02, treatment ratio versus control / TAG No 07, treatment ratio versus control / Threonine, treatment ratio versus control / alpha-Tocopherol, treatment ratio versus control / Alanine, treatment ratio versus control / Campesterol, treatment ratio versus control / Glutamate, treatment ratio versus control / Glutamine, treatment ratio versus control / Lysophosphatidylcholine (C20:4), treatment ratio versus control / Malate, treatment ratio versus control / Ornithine, treatment ratio versus control / Phosphatidylcholine (C18:0, C22:6), treatment ratio versus control / Threonic acid, treatment ratio versus control: plasma
Protocol: A group of each 5 male and female rats was dosed once daily with the indicated compounds (see Table 4, below for compounds, applied doses and administration details) over 28 days.
Each dose group in the studies consisted of five rats per sex. Additional groups of each 5 male and female animals served as controls. Before starting the treatment period, animals, which were 62-64 days old when supplied, were acclimatized to the housing and environmental conditions for 7 days. All animals of the animal population were kept under the same constant temperature (20-24±3° C.) and the same constant humidity (30-70%). The animals of the animal population were fed ad libitum. The food to be used was essentially free of chemical or microbial contaminants. Drinking water was also offered ad libitum. Accordingly, the water was free of chemical and microbial contaminants as laid down in the European Drinking Water Directive 98/83/EG. The illumination period was 12 hours light followed by 12 hours darkness (12 hours light, from 6:00 to 18:00, and 12 hours darkness, from 18:00 to 6:00). The studies were performed in an AAALAC-approved laboratory in accordance with the German Animal Welfare Act and the European Council Directive 86/609/EE. The test system was arranged according to the OECD 407 guideline for the testing of chemicals for repeated dose 28-day oral toxicity study in rodents.
In the morning of day 7, 14, and 28, blood was taken from the retroorbital venous plexus from fasted anaesthetized animals. From each animal, 1 ml of blood was collected with EDTA as anticoagulant. The samples were centrifuged for generation of plasma. All plasma samples were covered with a N2 atmosphere and then stored at −80° C. until analysis.
For mass spectrometry-based metabolite profiling analyses plasma samples were extracted and a polar and a non-polar (lipid) fraction was obtained. For GC-MS analysis, the non-polar fraction was treated with methanol under acidic conditions to yield the fatty acid methyl esters. Both fractions were further derivatised with O-methyl-hydroxyamine hydrochloride and pyridine to convert Oxo-groups to O-methyloximes and subsequently with a silylating agent before analysis. In LC-MS analysis, both fractions were reconstituted in appropriate solvent mixtures. HPLC was performed by gradient elution on reversed phase separation columns.
Steroids and their metabolites were measured by online SPE-LC-MS (Solid phase extraction-LC-MS).
Following comprehensive analytical validation steps, the data for each analyte were normalized against data from pool samples. These samples were run in parallel through the whole process to account for process variability. The significance of treatment group values specific for sex, treatment duration and metabolite was determined by comparing means of the treated groups to the means of the respective untreated control groups using WELCH-test and quantified with treatment ratios versus control and p-values.

CNC(=O)/C(=N/OC)c1ccccc1CO/N=C(C)/C(=N/OC)C(/C)=N/OC [Orysastrobin, (2E)-2-(methoxyimino)-2-{2-[(3E,5E,6E)-5-(methoxyimino)-4,6-dimethyl-2,8-dioxa-3,7-diazanona-3,6-dien-1-yl]phenyl}-N-methylacetamide]
Cholic acid, treatment ratio versus control (female rats, day 7): 15.95 | Choline plasmalogen (C18,C20:4), treatment ratio versus control (female rats, day 7): 1.18* | Citrate, treatment ratio versus control (female rats, day 7): 1.24* | Creatinine, treatment ratio versus control (female rats, day 7): 0.9 | DAG (C18:1,C18:2), treatment ratio versus control (female rats, day 7): 2.21* | Hippuric acid, treatment ratio versus control (female rats, day 7): 0.91 | Indole-3-propionic acid, treatment ratio versus control (female rats, day 7): 0.54 | Methionine, treatment ratio versus control (female rats, day 7): 1.33* | Proline, treatment ratio versus control (female rats, day 7): 1.03 | Serine, treatment ratio versus control (female rats, day 7): 1.32* | TAG (C16:0,C18:1,C18:3), treatment ratio versus control (female rats, day 7): 1.02 | TAG (C18:1,C18:2), treatment ratio versus control (female rats, day 7): 1.34* | TAG (C18:2,C18:2), treatment ratio versus control (female rats, day 7): 1.63* | TAG (C18:2,C18:3), treatment ratio versus control (female rats, day 7): 1.37* | TAG (DAG-Fragment), treatment ratio versus control (female rats, day 7): 1.62* | TAG No 02, treatment ratio versus control (female rats, day 7): 1 | TAG No 07, treatment ratio versus control (female rats, day 7): 1.19 | Threonine, treatment ratio versus control (female rats, day 7): 1.83* | alpha-Tocopherol, treatment ratio versus control (female rats, day 7): 1.27* | Cholic acid, treatment ratio versus control (female rats, day 14): 2.8* | Choline plasmalogen (C18,C20:4), treatment ratio versus control (female rats, day 14): 1.13* | Citrate, treatment ratio versus control (female rats, day 14): 1.04 | Creatinine, treatment ratio versus control (female rats, day 14): 1.08 | DAG (C18:1,C18:2), treatment ratio versus control (female rats, day 14): 2.83* | Hippuric acid, treatment ratio versus control (female rats, day 14): 1.04 | Indole-3-propionic acid, treatment ratio versus control (female rats, day 14): 0.73 | Methionine, treatment ratio versus control (female rats, day 14): 1.12* | Proline, treatment ratio versus control (female rats, day 14): 1.08* | Serine, treatment ratio versus control (female rats, day 14): 1.26* | TAG (C16:0,C18:1,C18:3), treatment ratio versus control (female rats, day 14): 2.42* | TAG (C18:1,C18:2), treatment ratio versus control (female rats, day 14): 2.28* | TAG (C18:2,C18:2), treatment ratio versus control (female rats, day 14): 3.02* | TAG (C18:2,C18:3), treatment ratio versus control (female rats, day 14): 1.94* | TAG (DAG-Fragment), treatment ratio versus control (female rats, day 14): 3.03* | TAG No 02, treatment ratio versus control (female rats, day 14): 0.84* | TAG No 07, treatment ratio versus control (female rats, day 14): 1.99* | Threonine, treatment ratio versus control (female rats, day 14): 1.83* | alpha-Tocopherol, treatment ratio versus control (female rats, day 14): 1.24* | Cholic acid, treatment ratio versus control (female rats, day 28): 5.13* | Choline plasmalogen (C18,C20:4), treatment ratio versus control (female rats, day 28): 1.26* | Citrate, treatment ratio versus control (female rats, day 28): 1.08* | Creatinine, treatment ratio versus control (female rats, day 28): 0.84 | DAG (C18:1,C18:2), treatment ratio versus control (female rats, day 28): 3.11* | Hippuric acid, treatment ratio versus control (female rats, day 28): 0.41* | Indole-3-propionic acid, treatment ratio versus control (female rats, day 28): 0.64* | Methionine, treatment ratio versus control (female rats, day 28): 1.11* | Proline, treatment ratio versus control (female rats, day 28): 1.1 | Serine, treatment ratio versus control (female rats, day 28): 1.16* | TAG (C16:0,C18:1,C18:3), treatment ratio versus control (female rats, day 28): 1.86* | TAG (C18:1,C18:2), treatment ratio versus control (female rats, day 28): 1.98* | TAG (C18:2,C18:2), treatment ratio versus control (female rats, day 28): 1.79* | TAG (C18:2,C18:3), treatment ratio versus control (female rats, day 28): 1.63* | TAG (DAG-Fragment), treatment ratio versus control (female rats, day 28): 2.22* | TAG No 02, treatment ratio versus control (female rats, day 28): 1.02 | TAG No 07, treatment ratio versus control (female rats, day 28): 1.5 | Threonine, treatment ratio versus control (female rats, day 28): 1.58* | alpha-Tocopherol, treatment ratio versus control (female rats, day 28): 1.33* | Alanine, treatment ratio versus control (male rats, day 7): 1.15* | Campesterol, treatment ratio versus control (male rats, day 7): 1.14 | Citrate, treatment ratio versus control (male rats, day 7): 1.12* | Creatinine, treatment ratio versus control (male rats, day 7): 1.04 | Glutamate, treatment ratio versus control (male rats, day 7): 1.09 | Glutamine, treatment ratio versus control (male rats, day 7): 0.96 | Hippuric acid, treatment ratio versus control (male rats, day 7): 0.69 | Lysophosphatidylcholine (C20:4), treatment ratio versus control (male rats, day 7): 0.86* | Malate, treatment ratio versus control (male rats, day 7): 1.17* | Methionine, treatment ratio versus control (male rats, day 7): 1.05* | Ornithine, treatment ratio versus control (male rats, day 7): 1.28* | Phosphatidylcholine (C18:0, C22:6), treatment ratio versus control (male rats, day 7): 1.39* | Serine, treatment ratio versus control (male rats, day 7): 1.17* | Threonic acid, treatment ratio versus control (male rats, day 7): 2.29* | Threonine, treatment ratio versus control (male rats, day 7): 1.28* | Alanine, treatment ratio versus control (male rats, day 14): 1.05 | Campesterol, treatment ratio versus control (male rats, day 14): 1.07 | Citrate, treatment ratio versus control (male rats, day 14): 1.04 | Creatinine, treatment ratio versus control (male rats, day 14): 1.03 | Glutamate, treatment ratio versus control (male rats, day 14): 0.77* | Glutamine, treatment ratio versus control (male rats, day 14): 0.81* | Hippuric acid, treatment ratio versus control (male rats, day 14): 0.58* | Lysophosphatidylcholine (C20:4), treatment ratio versus control (male rats, day 14): 0.77* | Malate, treatment ratio versus control (male rats, day 14): 1.08 | Methionine, treatment ratio versus control (male rats, day 14): 1 | Ornithine, treatment ratio versus control (male rats, day 14): 1.31* | Phosphatidylcholine (C18:0, C22:6), treatment ratio versus control (male rats, day 14): 1.34* | Serine, treatment ratio versus control (male rats, day 14): 1.1* | Threonic acid, treatment ratio versus control (male rats, day 14): 1.86* | Threonine, treatment ratio versus control (male rats, day 14): 1.23 | Alanine, treatment ratio versus control (male rats, day 28): 1.02 | Campesterol, treatment ratio versus control (male rats, day 28): 0.49* | Citrate, treatment ratio versus control (male rats, day 28): 1.09* | Creatinine, treatment ratio versus control (male rats, day 28): 1.16 | Glutamate, treatment ratio versus control (male rats, day 28): 0.88 | Glutamine, treatment ratio versus control (male rats, day 28): 0.71* | Hippuric acid, treatment ratio versus control (male rats, day 28): 0.48* | Lysophosphatidylcholine (C20:4), treatment ratio versus control (male rats, day 28): 0.81* | Malate, treatment ratio versus control (male rats, day 28): 1.16 | Methionine, treatment ratio versus control (male rats, day 28): 1.1* | Ornithine, treatment ratio versus control (male rats, day 28): 1.21* | Phosphatidylcholine (C18:0, C22:6), treatment ratio versus control (male rats, day 28): 1.19* | Serine, treatment ratio versus control (male rats, day 28): 1.26* | Threonic acid, treatment ratio versus control (male rats, day 28): 2.17* | Threonine, treatment ratio versus control (male rats, day 28): 1.14* | capability of inducing an iron adsorption disorder (statement in words): capable of inducing an iron adsorption disorder
